Results taken from patent US6100074A, “Mutant mono-oxygenase cytochrome P-450 cam” (BG plc, priority 1994, dated 2000).

Columns and labels:
[1] = biological target: T1, P450cam mutant Y96A, C334A (Pseudomonas putida, UniProt P00183, C335A/Y97A); type: biochemical, P. putida; details: also contains C334A
T1 construct: reconstituted with putidaredoxin and putidaredoxin reductase
Description: A solution containing 10 μM putidaredoxin, 2 μM putidaredoxin reductase, 1 μM cytochrome P-450cam mono-oyxgenase (wild-type or mutant) and 1 mM diphenylmethane in 100 mM KC1, 20 mM KH2 PO4 pH7.4 was preincubated at 25° C. in a shaker for 5 min. The enzymatic reaction was initiated by firstly adding NADH to a total concentration of 2 mM. Further four aliquots of NADH (to increase the NADH concentration by 1 mM each time) were added in intervals of 5 min and the reaction quenched after 30 min by adding 0.5 ml chloroform. The chloroform layer was analysed by gas chromatography.
(§1) Reaction products for some substrate compounds have been purified by high performance liquid chromatography and identified by mass spectroscopy, nuclear magnetic resonance, and/or co-elution. […] Table 4(a) to 4(h) details the product distributions for mutant and substrate combinations where this has been elucidated to date.
All mutants listed below also contain the C334A mutation.
Turnover rate measured as NADH consumption rate
(nmole NADH/nmole P450cam/s).

wild type P450cam [2] = biological target: T2, wild type P450cam (Pseudomonas putida, UniProt P00183); experiment: Turnover rate measured as NADH consumption rate, wild type; type: biochemical, P. putida; set-up: reconstituted with putidaredoxin and putidaredoxin reductase
P-450cam mutant Y96A [3] = biological target: T3, P-450cam mutant Y96A (Pseudomonas putida, UniProt P00183, Y97A); experiment: biochemical; type: binding; details: for percent displacement of bound DTT at 200 µM: Mutant Y96A, 200 μM DTT, 200 μM test compound
P-450cam mutant Y96A [4] = biological target: T3, P-450cam mutant Y96A; type: biochemical; set-up: key: Those substrates where oxidation has been demonstrated by means of NADH turnover are marked with a + sign
[5] = biological target: T1, P450cam mutant Y96A, C334A; type: biochemical, P. putida
Description: (§2) […] The enzymatic reaction was initiated by firstly adding NADH to a total concentration of 2 mM. Further four aliquots of NADH (to increase the NADH concentration by 1 mM each time) were added in intervals of 5 min and the reaction quenched after 30 min by adding 0.5 ml chloroform. The chloroform layer was analysed by gas chromatography.
as §1
(§3) Product structure and distributions following oxidation of substrates
(§4) active site mutants. All mutants shown below also contain the C334A

[6] = biological target: T4, P450cam mutant Y96F, C334A (Pseudomonas putida, UniProt P00183, C335A/Y97F); type: biochemical, P. putida
T4 construct: reconstituted with putidaredoxin and putidaredoxin reductase
Description: as §2, §1, §3, §4

[7] = biological target: T5, P450cam mutant F87A-F96G-F193A (C334A) (Pseudomonas putida, UniProt P00183, C335A/F194A/F88A/Y97G); type: biochemical, P. putida
T5 construct: reconstituted with putidaredoxin and putidaredoxin reductase
Description: as §2, §1, §3, §4

[8] = biological target: T6, P450cam mutant Y96L, C334A (Pseudomonas putida, UniProt P00183, C335A/Y97L); experiment: Product distribution following oxidation of substrates, Y96L (also C334A); type: biochemical, P. putida
T6 construct: reconstituted with putidaredoxin and putidaredoxin reductase
Description: as §2, §1, §3, §4

[9] = biological target: T7, P450cam mutant Y96V, C334A (Pseudomonas putida, UniProt P00183, C335A/Y97V); experiment: Product distribution following oxidation of substrates, Y96V (also C334A); type: biochemical, P. putida
T7 construct: reconstituted with putidaredoxin and putidaredoxin reductase
Description: as §2, §1, §3, §4

wild type P450cam [10] = biological target: T2, wild type P450cam; experiment: Product distribution following oxidation of substrates, WT; type: biochemical, P. putida; set-up: reconstituted with putidaredoxin and putidaredoxin reductase
Description: as §2, §1, §3

[11] = phosphate buffer, read-out: Vs DTT (percentage displacement of DTT bound to P-450)

T1 sequence (P00259 whole entry): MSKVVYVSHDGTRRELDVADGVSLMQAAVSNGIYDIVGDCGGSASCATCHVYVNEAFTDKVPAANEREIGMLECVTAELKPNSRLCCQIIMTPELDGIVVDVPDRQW
T1 sequence (P00183 2-415 Y97A/C335A): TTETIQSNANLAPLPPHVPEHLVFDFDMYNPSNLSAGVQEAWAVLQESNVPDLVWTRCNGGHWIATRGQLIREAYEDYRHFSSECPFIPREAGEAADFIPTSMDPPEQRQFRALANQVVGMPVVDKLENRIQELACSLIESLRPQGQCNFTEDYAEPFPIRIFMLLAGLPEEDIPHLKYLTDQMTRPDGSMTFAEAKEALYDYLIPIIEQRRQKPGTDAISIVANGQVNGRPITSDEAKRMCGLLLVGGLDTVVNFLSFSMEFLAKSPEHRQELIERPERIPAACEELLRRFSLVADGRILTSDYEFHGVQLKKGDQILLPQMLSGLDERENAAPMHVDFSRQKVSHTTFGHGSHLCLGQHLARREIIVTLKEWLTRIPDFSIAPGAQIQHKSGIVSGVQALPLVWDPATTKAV
T1 sequence (P16640 whole entry, further chain): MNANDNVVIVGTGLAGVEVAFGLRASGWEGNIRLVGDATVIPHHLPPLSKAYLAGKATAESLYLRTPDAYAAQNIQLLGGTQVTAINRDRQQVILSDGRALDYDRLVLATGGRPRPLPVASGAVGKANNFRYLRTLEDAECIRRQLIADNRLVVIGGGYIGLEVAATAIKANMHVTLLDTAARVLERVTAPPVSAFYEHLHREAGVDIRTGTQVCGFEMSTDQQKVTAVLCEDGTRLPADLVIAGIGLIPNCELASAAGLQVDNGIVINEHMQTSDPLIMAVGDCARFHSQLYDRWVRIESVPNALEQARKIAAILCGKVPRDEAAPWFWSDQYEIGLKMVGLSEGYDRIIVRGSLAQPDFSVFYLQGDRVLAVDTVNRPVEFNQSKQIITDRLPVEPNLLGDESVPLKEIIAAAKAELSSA
T5 sequence (P00259 whole entry): as the sequence (P00259 whole entry) above
T5 sequence (P16640 whole entry, further chain): as the sequence (P16640 whole entry, further chain) above
T5 sequence (P00183 2-415 F88A/Y97G/F194A/C335A): as the sequence (P00183 2-415 Y97A/C335A) above, with F87A, A96G, F193A counted along it
T2 sequence (P00259 whole entry): as the sequence (P00259 whole entry) above
T2 sequence (P00183 whole entry): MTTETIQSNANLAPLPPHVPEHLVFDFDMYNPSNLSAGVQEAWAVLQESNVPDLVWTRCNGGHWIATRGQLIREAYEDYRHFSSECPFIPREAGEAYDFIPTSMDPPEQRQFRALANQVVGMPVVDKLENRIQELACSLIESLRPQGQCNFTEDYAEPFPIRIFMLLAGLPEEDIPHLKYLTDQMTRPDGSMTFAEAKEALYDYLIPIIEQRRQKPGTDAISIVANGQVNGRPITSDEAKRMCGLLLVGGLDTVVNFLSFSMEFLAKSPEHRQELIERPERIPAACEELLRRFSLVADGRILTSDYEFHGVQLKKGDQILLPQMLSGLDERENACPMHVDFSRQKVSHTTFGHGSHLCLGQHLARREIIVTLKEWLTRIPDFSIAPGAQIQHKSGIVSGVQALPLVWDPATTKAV
T2 sequence (P16640 whole entry, further chain): as the sequence (P16640 whole entry, further chain) above
T6 sequence (P00259 whole entry): as the sequence (P00259 whole entry) above
T6 sequence (P16640 whole entry, further chain): as the sequence (P16640 whole entry, further chain) above
T6 sequence (P00183 2-415 Y97L/C335A): as the sequence (P00183 2-415 Y97A/C335A) above, with A96L counted along it
T7 sequence (P16640 whole entry): as the sequence (P16640 whole entry, further chain) above
T7 sequence (P00259 whole entry, further chain): as the sequence (P00259 whole entry) above
T7 sequence (P00183 2-415 Y97V/C335A): as the sequence (P00183 2-415 Y97A/C335A) above, with A96V counted along it
T4 sequence (P16640 whole entry): as the sequence (P16640 whole entry, further chain) above
T4 sequence (P00183 2-415 Y97F/C335A): as the sequence (P00183 2-415 Y97A/C335A) above, with A96F counted along it
T4 sequence (P00259 whole entry, further chain): as the sequence (P00259 whole entry) above
T3 sequence (P00183 2-415 Y97A): as the sequence (P00183 2-415 Y97A/C335A) above, with A334C counted along it

CC(C)CC(C)(C)C [2,2,4-trimethyl pentane]
Turnover rate measured as NADH consumption rate [1]: 5.3 nmole NADH/nmole P450cam/s | Turnover rate measured as NADH consumption rate (wild type P450cam [2]): 0.9 nmole NADH/nmole P450cam/s

CCCC(C)(C)C [2,2-dimethyl pentane]
Turnover rate measured as NADH consumption rate [1]: 12.8 nmole NADH/nmole P450cam/s | Turnover rate measured as NADH consumption rate (wild type P450cam [2]): 5.2 nmole NADH/nmole P450cam/s

CC(C)CC(C)C [2,4-dimethyl pentane]
Turnover rate measured as NADH consumption rate [1]: 12.6 nmole NADH/nmole P450cam/s | Turnover rate measured as NADH consumption rate (wild type P450cam [2]): 0.2 nmole NADH/nmole P450cam/s

CCCC(C)C [2-methyl pentane]
Turnover rate measured as NADH consumption rate [1]: 11.7 nmole NADH/nmole P450cam/s | Turnover rate measured as NADH consumption rate (wild type P450cam [2]): 3.8 nmole NADH/nmole P450cam/s

CCC(C)CC [3-methyl pentane]
Turnover rate measured as NADH consumption rate [1]: 14.2 nmole NADH/nmole P450cam/s | Turnover rate measured as NADH consumption rate (wild type P450cam [2]): 1.3 nmole NADH/nmole P450cam/s

CCCC(C)CCC [4-methyl heptane]
Turnover rate measured as NADH consumption rate [1]: 10.2 nmole NADH/nmole P450cam/s | Turnover rate measured as NADH consumption rate (wild type P450cam [2]): 1.4 nmole NADH/nmole P450cam/s

C1CCCCC1 [Cyclohexane]
percent displacement of bound DTT at 200 µM (P-450cam mutant Y96A [3]; [11]): 60% | NADH turnover? (P-450cam mutant Y96A [4]): +

CCCCCC [Hexane]
Vs DTT (percentage displacement of DTT bound to P-450) (P-450cam mutant Y96A [3]; phosphate buffer, 200 µM): 40 | inhibition at 200 µM (P-450cam mutant Y96A [3]; read-out: Vs DTT (percentage displacement of DTT bound to P-450)): 60% | NADH turnover? (P-450cam mutant Y96A [4]): + | Turnover rate measured as NADH consumption rate [1]: 6.0 nmole NADH/nmole P450cam/s | Relative activity (WT = 1) [5]: 25.5 | Relative activity (WT = 1) [6]: 18.2

c1ccc2ccccc2c1 [Naphthalene]
percent displacement of bound DTT at 200 µM (P-450cam mutant Y96A [3]; [11]): 20% | Total products [7]: 0.1 area/10^5 | Products (%): 1-ol ([7]; naphthalene): 100% | Products (%): 2-ol ([7]; naphthalene): 0% | Total products [5]: 1.1 area/10^5 | Products (%): 1-ol ([5]; naphthalene): 100% | Products (%): 2-ol ([5]; naphthalene): 0% | Total products [6]: 2.4 area/10^5 | Products (%): 1-ol ([6]; naphthalene): 100% | Products (%): 2-ol ([6]; naphthalene): 0% | Total products [8]: 0.7 area/10^5 | Products (%): 1-ol ([8]; naphthalene): 100% | Products (%): 2-ol ([8]; naphthalene): 0% | Total products [9]: 1.4 area/10^5 | Products (%): 1-ol ([9]; naphthalene): 100% | Products (%): 2-ol ([9]; naphthalene): 0% | Total products (wild type P450cam [10]): 0.016 area/10^5 | Products (%): 1-ol (wild type P450cam [10]; naphthalene): 100% | Products (%): 2-ol (wild type P450cam [10]; naphthalene): 0%

c1ccc2c(c1)ccc1ccccc12 [Phenanthrene]
percent displacement of bound DTT at 200 µM (P-450cam mutant Y96A [3]; [11]): 20% | NADH turnover? (P-450cam mutant Y96A [4]): + | Total products [7]: 0.065 area/10^6 | Products (%): A ([7]; phenanthrene): 27% | Products (%): B ([7]; phenanthrene): 41% | Products (%): C ([7]; phenanthrene): 3% | Products (%): D ([7]; phenanthrene): 29% | Total products [5]: 7.0 area/10^6 | Products (%): A ([5]; phenanthrene): 49% | Products (%): B ([5]; phenanthrene): 23% | Products (%): C ([5]; phenanthrene): 13% | Products (%): D ([5]; phenanthrene): 15% | Total products [6]: 4.5 area/10^6 | Products (%): A ([6]; phenanthrene): 41% | Products (%): B ([6]; phenanthrene): 31% | Products (%): C ([6]; phenanthrene): 5% | Products (%): D ([6]; phenanthrene): 23% | Total products [8]: 2.8 area/10^6 | Products (%): A ([8]; phenanthrene): 35.5% | Products (%): B ([8]; phenanthrene): 41% | Products (%): C ([8]; phenanthrene): 9% | Products (%): D ([8]; phenanthrene): 14.5% | Total products [9]: 1.6 area/10^6 | Products (%): A ([9]; phenanthrene): 41% | Products (%): B ([9]; phenanthrene): 38% | Products (%): C ([9]; phenanthrene): 11% | Products (%): D ([9]; phenanthrene): 10% | Total products (wild type P450cam [10]): 0.075 area/10^6 | Products (%): A (wild type P450cam [10]; phenanthrene): 38% | Products (%): B (wild type P450cam [10]; phenanthrene): 15% | Products (%): C (wild type P450cam [10]; phenanthrene): 12% | Products (%): D (wild type P450cam [10]; phenanthrene): 35%
